Measured values as given in ChEMBL document CHEMBL5465560, “Selectivity Literature for EUbOPEN Chemogenomic Library” (2024).
One block for each compound: values may come before it.

Key:
[1] = molecular target: T1, Megakaryocyte-associated tyrosine-protein kinase (Homo sapiens) (UniProt P42679); test: Selectivity interaction (KinomeScan (DiscoverX)) EUB0000607a MATK; conditions: at 10 µM
T1 sequence (whole entry): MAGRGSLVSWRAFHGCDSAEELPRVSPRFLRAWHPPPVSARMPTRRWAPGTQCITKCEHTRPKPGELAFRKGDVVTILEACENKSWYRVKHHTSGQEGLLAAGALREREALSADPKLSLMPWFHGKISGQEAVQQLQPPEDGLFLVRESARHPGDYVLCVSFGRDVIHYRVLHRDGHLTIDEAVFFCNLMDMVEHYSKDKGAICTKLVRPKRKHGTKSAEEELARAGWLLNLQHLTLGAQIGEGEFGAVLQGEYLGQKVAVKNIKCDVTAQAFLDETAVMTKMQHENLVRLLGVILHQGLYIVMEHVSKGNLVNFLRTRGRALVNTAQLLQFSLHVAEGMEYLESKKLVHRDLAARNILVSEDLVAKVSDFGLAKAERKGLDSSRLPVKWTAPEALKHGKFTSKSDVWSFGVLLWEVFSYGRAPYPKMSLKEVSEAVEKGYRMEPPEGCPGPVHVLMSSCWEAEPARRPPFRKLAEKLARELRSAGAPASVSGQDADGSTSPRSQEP

[2] = molecular target: Cyclin-dependent kinase 18 (Homo sapiens) (UniProt Q07002); test: Selectivity interaction (ActivX KiNativ screen (kinase selectivity in THP-1 cell lysates)) EUB0000639a CDK18; format: subcellular; conditions: lysate, at 0.01 µM
Cyclin-dependent kinase 18 (Homo sapiens), sequence (Q07002 whole entry): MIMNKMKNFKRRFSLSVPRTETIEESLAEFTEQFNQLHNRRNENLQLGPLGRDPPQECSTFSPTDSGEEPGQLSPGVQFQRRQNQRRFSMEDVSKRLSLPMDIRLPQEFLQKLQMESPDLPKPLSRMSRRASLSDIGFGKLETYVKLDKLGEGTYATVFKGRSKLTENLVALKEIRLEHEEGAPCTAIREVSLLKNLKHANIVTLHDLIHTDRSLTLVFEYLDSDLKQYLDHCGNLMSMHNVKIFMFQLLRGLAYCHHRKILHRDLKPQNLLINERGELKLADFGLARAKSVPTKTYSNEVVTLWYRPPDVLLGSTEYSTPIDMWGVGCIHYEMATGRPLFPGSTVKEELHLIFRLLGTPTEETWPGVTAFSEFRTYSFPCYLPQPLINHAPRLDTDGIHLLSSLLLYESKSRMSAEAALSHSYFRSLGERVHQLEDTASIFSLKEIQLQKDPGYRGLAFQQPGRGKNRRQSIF

[3] = molecular target: T2, Mitogen-activated protein kinase kinase kinase 5 (Homo sapiens) (UniProt Q99683); test: Selectivity interaction (ActivX KiNativ screen (kinase selectivity in THP-1 cell lysates)) EUB0000639a MAP3K5; format: subcellular; conditions: lysate, at 1 µM
T2 sequence (whole entry): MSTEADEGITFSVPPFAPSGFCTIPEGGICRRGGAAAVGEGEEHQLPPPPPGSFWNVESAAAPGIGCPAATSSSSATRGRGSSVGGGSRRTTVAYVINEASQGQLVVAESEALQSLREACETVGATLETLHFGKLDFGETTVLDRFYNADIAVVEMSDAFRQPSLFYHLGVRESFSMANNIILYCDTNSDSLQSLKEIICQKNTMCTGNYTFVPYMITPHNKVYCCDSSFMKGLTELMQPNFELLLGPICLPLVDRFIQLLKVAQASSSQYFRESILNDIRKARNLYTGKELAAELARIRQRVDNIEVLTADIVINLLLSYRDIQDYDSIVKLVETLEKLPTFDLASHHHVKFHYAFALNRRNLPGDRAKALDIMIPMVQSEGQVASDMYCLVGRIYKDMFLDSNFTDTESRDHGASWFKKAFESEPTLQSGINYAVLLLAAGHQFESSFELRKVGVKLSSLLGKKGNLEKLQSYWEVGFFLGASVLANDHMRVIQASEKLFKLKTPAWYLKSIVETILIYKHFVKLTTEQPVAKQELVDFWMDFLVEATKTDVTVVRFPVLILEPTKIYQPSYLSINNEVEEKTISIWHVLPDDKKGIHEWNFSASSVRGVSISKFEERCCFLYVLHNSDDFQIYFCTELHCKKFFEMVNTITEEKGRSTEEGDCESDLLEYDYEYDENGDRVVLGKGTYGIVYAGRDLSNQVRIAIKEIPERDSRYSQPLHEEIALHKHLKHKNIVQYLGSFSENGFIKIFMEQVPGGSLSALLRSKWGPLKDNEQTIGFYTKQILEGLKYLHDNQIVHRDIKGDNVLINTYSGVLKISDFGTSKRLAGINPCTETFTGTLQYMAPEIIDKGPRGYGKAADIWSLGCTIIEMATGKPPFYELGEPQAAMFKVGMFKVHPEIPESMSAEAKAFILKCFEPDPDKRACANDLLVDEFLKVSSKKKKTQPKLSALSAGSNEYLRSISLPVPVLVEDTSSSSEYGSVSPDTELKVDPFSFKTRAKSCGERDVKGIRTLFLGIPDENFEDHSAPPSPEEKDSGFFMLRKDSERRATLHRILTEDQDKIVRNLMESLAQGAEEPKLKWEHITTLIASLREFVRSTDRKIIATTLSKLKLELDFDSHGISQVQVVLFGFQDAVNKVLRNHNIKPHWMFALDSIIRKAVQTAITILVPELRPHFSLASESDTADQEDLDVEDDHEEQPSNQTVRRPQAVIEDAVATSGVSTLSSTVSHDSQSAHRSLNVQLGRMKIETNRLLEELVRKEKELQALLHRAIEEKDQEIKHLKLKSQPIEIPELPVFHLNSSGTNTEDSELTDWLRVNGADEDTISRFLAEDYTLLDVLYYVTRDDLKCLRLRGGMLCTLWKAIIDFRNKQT

[4] = molecular target: Serine/threonine-protein kinase PLK3 (Homo sapiens, UniProt Q9H4B4); test: Selectivity interaction (Kinase panel (Z-LYTE Assay)) EUB0001632a PLK3; conditions: at 10 µM
Serine/threonine-protein kinase PLK3, sequence (Q9H4B4 whole entry, looked up): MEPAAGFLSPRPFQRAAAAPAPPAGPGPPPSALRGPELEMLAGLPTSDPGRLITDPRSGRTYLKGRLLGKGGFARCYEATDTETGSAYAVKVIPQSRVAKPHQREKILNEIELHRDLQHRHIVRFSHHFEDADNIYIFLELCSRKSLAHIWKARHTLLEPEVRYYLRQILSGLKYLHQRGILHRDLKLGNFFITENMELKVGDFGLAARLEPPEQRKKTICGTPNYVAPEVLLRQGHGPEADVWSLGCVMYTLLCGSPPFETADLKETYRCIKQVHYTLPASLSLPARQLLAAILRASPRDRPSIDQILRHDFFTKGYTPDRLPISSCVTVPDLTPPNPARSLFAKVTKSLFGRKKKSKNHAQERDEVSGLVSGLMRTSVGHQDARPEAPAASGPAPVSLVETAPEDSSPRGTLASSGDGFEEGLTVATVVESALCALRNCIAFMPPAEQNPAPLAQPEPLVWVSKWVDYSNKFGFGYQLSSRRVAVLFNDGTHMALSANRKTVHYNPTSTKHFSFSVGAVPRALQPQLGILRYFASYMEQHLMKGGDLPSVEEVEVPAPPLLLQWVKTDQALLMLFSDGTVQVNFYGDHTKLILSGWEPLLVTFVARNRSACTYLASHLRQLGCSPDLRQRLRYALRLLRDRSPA

SMILES: CNC(=O)Nc1ccc(-c2nc(N3CC4CCC(C3)O4)c3cnn(C4CCC5(CC4)OCCO5)c3n2)cc1
% of control [1]: 100%

% of inhibition [2]: 16.3%
% of inhibition [3]: -29.6%
SMILES: CC[C@@H]1[C@H](F)C(=O)N[C@@H]1COc1nccc2cc(C(N)=O)c(OC)cc12 [ZIMLOVISERTIB]

% of control [4]: 0.242%
SMILES: Cn1cc(-n2cnc3c(NCc4nc5cc(Cl)c(Cl)cc5[nH]4)nc(N4CCOCC4)nc32)cn1
